In patent publication US7531333B2, “Process for producing isoprenoid compounds by microorganisms and a method for screening compounds with antibiotic or weeding activity” (Kyowa Hakko Kogyo Co., Ltd., priority 1998, dated 2009):
Where two headings read alike, the source gives them in different places.

Tests used:
[1] = target: T1, 1-deoxy-D-xylulose 5-phosphate reductoisomerase (Escherichia coli, UniProt P45568); test: Enzymatic activity of yaeM gene product (NADPH decrease, absorbance at 340 nm); assay type: biochemical, E. coli
T1 construct: made in house; host or cells: E. coli M15/pREP4
T1 sequence (P45568 1-398 R277V/T278R/P279Q/I280L/A281P/H282T/T283P/M284W): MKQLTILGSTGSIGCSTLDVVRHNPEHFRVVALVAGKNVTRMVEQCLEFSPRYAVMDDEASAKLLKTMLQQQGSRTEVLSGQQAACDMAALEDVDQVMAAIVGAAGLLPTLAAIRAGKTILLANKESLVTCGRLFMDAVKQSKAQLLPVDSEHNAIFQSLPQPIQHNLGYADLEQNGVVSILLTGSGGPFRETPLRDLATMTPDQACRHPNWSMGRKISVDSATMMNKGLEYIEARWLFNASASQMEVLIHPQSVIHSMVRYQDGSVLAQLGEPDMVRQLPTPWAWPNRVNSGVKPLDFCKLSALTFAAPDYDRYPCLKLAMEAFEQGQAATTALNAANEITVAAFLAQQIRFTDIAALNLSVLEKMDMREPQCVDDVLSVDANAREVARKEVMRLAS
Protocol: (§1) […] of 1-deoxy-D-xylulose 5-phosphate (final concentration) synthesized as described above was added to 1 ml of a reaction solution containing […] Tris-hydrochloric acid (pH 7.5), […] MmCl2, […] NADPH and yaeM gene product obtained in Example 8 (2) ? , and then incubated at 37° C.
The enzymological characteristics of 1-deoxy-D-xylulose 5-phosphate reductoisomerase were examined using 1 ml of the reaction system as described in Example 8 (2) ? . Here, 1 unit is defined as the activity to oxidize 1 mmol of NADPH per a minute.

E. coli W3110 = test: Growth of E. coli W3110 on LB agar medium containing fosmidomycin; assay type: cell-based; conditions: 37° C., two days
Protocol: E. coli W3110 was spread on LB agar medium, the same medium containing 3.13 mg/l of fosmidomycin, and the same medium containing 3.13 mg/l of fosmidomycin and 0.25 g/l of 2-C-methyl-D-erythritol, then cultured at 37° C.

[2] = target: T1, 1-deoxy-D-xylulose 5-phosphate reductoisomerase; assay type: biochemical, E. coli; conditions: various concentrations, 37° C., FIG. 4
Protocol: as §1

FS1576 = test: Cell growth of parent strain FS1576 on LB agar with 2-C-methyl-D-erythritol; assay type: cell-based, E. coli; conditions: FS1576, 1 g/l of 2-C-methyl-D-erythritol, 37° C., 2 days
Protocol: (§2) The yaeM-disrupted strain produced as described above and its parent strain FS1576 were spread on LB agar medium and the same medium containing 1 g/l of 2-C-methyl-D-erythritol, then cultured at 37° C.

yaeM-deleted strain = test: Cell growth of yaeM-disrupted strain on LB agar with 2-C-methyl-D-erythritol; assay type: cell-based, E. coli; conditions: 1 g/l of 2-C-methyl-D-erythritol, 37° C., 2 days
Protocol: as §2

[3] = additive at 1 mol/l, N.D. = no activity was detected, 1 unit = activity to oxidize 1 mmol of NADPH per minute

SMILES: [Cl-].[Cl-].[Mg+2] [MgCl2]
- Specific Activity [1, 3]: 4.0 units/mg protein

SMILES: NC(=O)C1=CN([C@@H]2O[C@H](COP(=O)(O)OP(=O)(O)OC[C@H]3O[C@@H](n4cnc5c(N)ncnc54)[C@H](O)[C@@H]3O)[C@@H](O)[C@H]2O)C=CC1 [NADH]
- Activity when NADPH was replaced with NADH ([1]; relative to activity with NADPH): below 1/100

SMILES: CC(=O)[C@@H](O)[C@H](O)CO [1-deoxy-D-xylulose]
- Reaction when used as substrate instead of 1-deoxy-D-xylulose 5-phosphate [1]: No reaction occurred

SMILES: [Ca+2].[Cl-].[Cl-] [CaCl2]
- Specific Activity [1, 3]: 0.2 units/mg protein

SMILES: O=CN(O)CCCP(=O)(O)O [fosmidomycin, 3-(N-formyl-N-hydroxyamino)propylphosphonic acid]
- Growth of the microorganism on LB agar medium (E. coli W3110; 3.13 mg/l of fosmidomycin and 0.25 g/l of 2-C-methyl-D-erythritol): could grow
- Growth of the microorganism on LB agar medium (E. coli W3110; 3.13 mg/l of fosmidomycin only): no microorganism grew
- Inhibition of 1-deoxy-D-xylulose 5-phosphate reductoisomerase [2]: inhibit

SMILES: O=S(=O)([O-])[O-].[Ni+2] [NiSO4]
- Specific Activity [1, 3]: 0.2 units/mg protein

SMILES: C[C@](O)(CO)[C@H](O)CO [ME, 2-C-methyl-D-erythritol]
- Cell growth on LB + ME (FS1576): +
- Cell growth on LB + ME (yaeM-deleted strain): +

SMILES: [Cl][Mn][Cl] [MnCl2]
- Specific Activity [1, 3]: 11.8 units/mg protein

SMILES: NC(=O)c1ccc[n+]([C@@H]2O[C@H](COP(=O)([O-])OP(=O)(O)OC[C@H]3O[C@@H](n4cnc5c(N)ncnc54)[C@H](OP(=O)(O)O)[C@@H]3O)[C@@H](O)[C@H]2O)c1 [NADP]
- Km ([1]; in the presence of MnCl2): 7.4 µM

SMILES: O=S(=O)([O-])[O-].[Zn+2] [ZnSO4]
- Specific Activity [1, 3]: 0.3 units/mg protein

SMILES: [Cl-].[Cl-].[Co+2] [CoCl2]
- Specific Activity [1]: 6.0 units/mg protein
